The nature of data set [1]: Peptide incorporation into LNP (Peptide:Lipid ratio; BCA or CBQCA protein quantification). Format: physicochemical. The procedure: (§1) Lipid concentrations were determined by measuring total cholesterol using the Cholesterol E enzymatic assay kit from Wako Chemicals USA (Richmond, Va.).
Quantification of protein/peptide was performed with the use of either the BCA Protein Assay (Pierce) or the CBQCA Protein Quantitation Kit (Invitrogen) according to the manufacturer's instructions.

A short description of data set [2]: LNP particle size and polydispersity by dynamic light scattering. In kind it is physicochemical.
Data set [3] in a line: RNA or antisense oligonucleotide encapsulation efficiency (Quant-iT Ribogreen RNA / Oligreen ssDNA assays). In kind it is physicochemical. The procedure: The RNA or antisense oligonucleotide encapsulation efficiency was determined using the Quant-iT Ribogreen RNA or Oligreen ssDNA Assays, respectively (Life Technologies, Burlington, ON). Briefly, LNP was incubated at 37° C. for 10 min in the presence or absence of 1% Triton X-100 (Sigma-Aldrich, St. Louis, Mo.) followed by the addition of the Ribogreen or Oligreen reagent. The fluorescence intensity (Ex/Em: 480/520 nm) was determined and samples treated with Triton X-100 represent total nucleic acid while untreated samples represent unencapsulated nucleic acid.
To prepare the LNPs, ionizable lipid, DSPC, cholesterol and PEG-DMPE were dissolved in ethanol. The siRNA was dissolved in pH 4.0-6.2 buffer composed of 10-50 mM acetate, succinate or citrate. In select cases, 10-50 mM 4-(2-Hydroxyethyl)piperazine-1-ethanesulfonic acid (HEPES) or 2-(N-Morpholino)ethanesulfonic acid (MES) buffer was used. LNP were prepared by rapidly mixing the lipid components in ethanol (in molar ratio of 50/10/38.5/1.5 of […]) with nucleic acids in aqueous buffer at a volumetric flow rate ratio of 1:3 (ethanol to aqueous, combined flow rate >12 mL/min) at room temperature. Typically, siRNA/lipids ratios were targeted for 0.056 wt/μmol. The product was then dialyzed against 1× phosphate-buffered saline (PBS) at pH 7.4 for 24 hours to remove residual ethanol and to raise the pH. PBS was refreshed after 4 hours.

Another data set relates to HepG2 cells. The data set is described as follows: LNP luciferase mRNA expression in cultured HepG2 cells. In kind it is cell-based. The note with it: 0.125-1 μg/mL luciferase mRNA, 16-24 hr. On the procedure:
Cells were treated with LNP formulations containing ionizable lipids of the disclosure and luciferase mRNA at concentrations of 0.125-1 μg/mL. The level of luminescence was measured post treatment. From left-to-right, the ionizable lipids incorporated in the LNPs were INT-A001 (white bar), INT-A002 (dotted bar), INT-A003 (black bar) and INT-A004 (gray bar).
The activity of the ionizable lipids in vitro was evaluated in cultured HepG2 cells. LNPs containing Firefly Luciferase mRNA were prepared as described in Example 2. LNPs were diluted to 0.125-1 μg/mL with DMEM media containing 10% FBS and incubated with HepG2 cells for 16-24 hr. Cells were then lysed with Glo-Lysis Buffer (Promega). Equal amounts of Steady-Glo reagent (Promega) was added to each sample and the level of luminescence was determined using a Synergy LX plate reader (BioTek).

A short description of data set [4]: HA incorporation into LNP (HA:Lipid ratio). In kind it is physicochemical. The note with it: LNP containing ionizable lipid and HA (8-15 kDa). The procedure:
as §1
Hyaluronic acid was used as an example of anionic cargos. LNPs were prepared as described in Example 2 containing HA with a molecular weight of 8-15 kDa.

The subject of a further data set is factor VII (FVII). The data set is described as follows: LNP-siRNA activity in the mouse Factor VII model. In kind it is in vivo. The note with it: C57Bl/6 mice, 24 hours post-injection; for Activity in mediating FVII gene-silencing (residual serum FVII levels): i.v. tail vein, 0.03-0.3 mg/kg siRNA. On the procedure: Lipid nanoparticle (LNP) formulations containing cationic lipids of the disclosure and FVII siRNA were injected via a tail vein in C57Bl/6 wild-type mice and the levels of FVII in plasma was measured post injection. The mice were injected with LNP-siRNA at doses of 0.03 (left bar), 0.1 (middle bar) and 0.3 mg/kg (right bar). The cationic lipids incorporated in the LNPs were INT-A001, INT-A002, INT-A003 and INT-A007.
LNPs prepared as described in Example 2 containing siRNA against factor VII (FVII) were diluted with PBS such that injection volumes were maintained at 10 mL/kg body weight and administered (based on siRNA concentration) intravenously via tail vein in 6 to 8 weeks old female C57Bl/6 mice (Charles River Laboratories, Wilmington, Mass.). At 24 hours post-injection, animals were euthanized and blood was collected via intracardiac sampling. Blood samples were allowed to coagulate at 4° C. overnight and the serum was separated followed by centrifugation for 15 min at 12,000 rpm. The serum FVII levels were determined using the Biophen VII chromogenic assay (Aniara, Mason, Ohio) according to the protocol of the manufacturer.

The subject of data set [5] is Firefly Luciferase mRNA expression in liver. Kind of data set: LNP luciferase mRNA expression in vivo in the liver of mice. More on the design: species or system mouse. The note with it: C57Bl/6 mice, 1 mg/kg mRNA i.v., liver at 4 hours post-injection. On the procedure: Lipid nanoparticle (LNP) formulations containing cationic lipids of the disclosure and Luciferase mRNA were injected via a tail vein in C57Bl/6 wild-type mice at mRNA dose of 1 mg/kg and the luminescence in the liver was measured post injection. From left-to-right, the cationic lipids incorporated in the LNP-mRNA were INT-A001, INT-A002, INT-A003 and INT-A004. Untreated animals were injected with phosphate buffered saline (PBS).
To assess in vivo activity, LNPs containing Firefly Luciferase mRNA were prepared as described in Example 2. LNPs were diluted with PBS and administered at 1 mg/kg intravenously via tail vein in 6 to 8 weeks old female C57Bl/6 mice (Charles River Laboratories, Wilmington, Mass.). At 4 hours post-injection, animals were euthanized and the livers were collected. Approximately 100 mg of liver was homogenized in 0.5 mL Glo Lysis Buffer (Promega). The homogenate was further diluted 1:4 with the lysis buffer and then 50 μL of diluted homogenate was added to 50 μL Steady-Glo reagent (Promega). The level of luminescence was determined using a Synergy LX plate reader (BioTek).

Data set [6] can be described thus: Apparent pKa of LNP systems (TNS fluorescence assay). Format: physicochemical. The note with it: LNP containing ionizable lipid and FVII siRNA. The procedure:
Apparent acid dissociation constants (pKa) of LNP systems were determined according to a procedure described in the literature (Jayaraman, M., et al., Maximizing the potency of siRNA lipid nanoparticles for hepatic gene silencing in vivo. Angewandte Chemie, 2012. 51(34): p. 8529-33). Briefly, 2-(p-toluidino)-6-napthalene sulfonic acid (TNS, Sigma-Aldrich, St. Louis, Mo.) and LNP were diluted in buffer (10 mM HEPES, 10 mM MES and 10 mM ammonium acetate) with pH ranges from 2.5 to 11. Final concentration of TNS or total lipid was 6 μM. Samples were then mixed and fluorescence intensity was measured (Ex/Em: 321/445 nm) using a Perkin Elmer LS55. A sigmoidal best fit analysis was applied and the pKa was measured as the pH at half-maximal fluorescence intensity.

Where [7] appears, read: LNP containing ionizable lipid and a 2.0 kDa basic peptide (net charge +4).
[8] abbreviates: LNP containing ionizable lipid and a 4.2 kDa acidic peptide (net charge -3).
Setting [9] is: LNP containing ionizable lipid and Luciferase mRNA.
Where [10] appears, read: LNP containing ionizable lipid and antisense oligonucleotide.
Setting [11] is: LNP containing ionizable lipid and siRNA.
Where [12] appears, read: LNP containing ionizable lipid and HA (8-15 kDa).
Where [13] appears, read: LNP containing ionizable lipid and a 2.0 kDa acidic peptide (net charge -3).

The source of these data is patent publication US20220304929A1, “LIPIDS FOR DELIVERY OF CHARGED MATERIAL, FORMULATIONS THEREOF AND METHOD FOR MAKING SAME” (INTEGRATED NANOTHERAPEUTICS INC., priority 2019, published 2022).

“Also recorded” adds a separate entry of the source.

Take `CCCCC/C=C\C/C=C\CCCCCCCC(=O)O[C@@H](CCCCCCCC)[C@@H](CCCCCCCC(=O)O)OC(=O)CCCCCCC/C=C\C/C=C\CCCCC` (racemic) [INT-A008, (±)-syn-9,10-Dilinoleoxystearic Acid]: the “Peptide:Lipid” value in data set [1] (setting [7]) is on record as 0.104 wt/wt. Moreover, in data set [2] (setting [7]), the “Particle Diameter” value was determined as 39 nm and the “Polydispersity index (PDI)” value is 0.058.

On to `CCCCC/C=C\C/C=C\CCCCCCCC(=O)O[C@@H](CCCCCCCC)[C@@H](CCCCCCCC(=O)OCCCN(CC)CC)OC(=O)CCCCCCC/C=C\C/C=C\CCCCC` (racemic) [INT-A002, 3-(Diethylamino)propyl (±)-syn-9,10-dilinoleoxystearate], for which the “Peptide:Lipid” value in data set [1] (setting [8]) came out at 0.157 wt/wt. In addition, the entries for the “Encapsulation Efficiency” value in data set [3] (setting [9]), in data set [3] (setting [10]) and in data set [3] (setting [11]) were 99%, 92% and 97%, respectively. In addition, the “Activity in delivering mRNA and inducing its expression in vitro (luminescence)” value (shortened to “Activity … (luminescence)”) with HepG2 cells was “can effectively deliver mRNA”. Moreover, the “HA:Lipid” value in data set [4] is given as 0.093 wt/wt. Moreover, the “Particle Diameter” value in data set [2] (setting [12]) was found to be 83 nm; in data set [2] (setting [9]), 47 nm; in data set [2] (setting [8]), 62 nm; in data set [2] (setting [10]), 49 nm; in data set [2] (setting [11]) it was 52 nm. Also, the “Polydispersity index (PDI)” value in data set [2] (setting [12]) came to 0.027; in data set [2] (setting [9]), 0.053; in data set [2] (setting [8]), 0.015; in data set [2] (setting [10]), 0.096; in data set [2] (setting [11]) it was 0.063. The “ED 50 (effective dose to achieve 50% gene-silencing)” value in the data set on factor VII (FVII) (i.v. LNP FVII siRNA, estimated) is reported as “less than 0.1 mg/kg”. The “Activity in mediating FVII gene-silencing (residual serum FVII levels)” value in the data set with factor VII (FVII) is given as “active in mediating gene-silencing; also recorded: most active”. The “Activity in delivering mRNA and inducing mRNA expression in vivo (liver luminescence)” value (shortened to “Activity … (liver luminescence)”) in data set [5] (1 mg/kg) is “can effectively deliver mRNA; also recorded: most active”.

As for `CCCCC/C=C\C/C=C\CCCCCCCC(=O)O[C@@H](CCCCCCCC)[C@@H](CCCCCCCC(=O)OCCCN(C)C)OC(=O)CCCCCCC/C=C\C/C=C\CCCCC` (racemic) [INT-A003, 3-(Dimethylamino)propyl (±)-syn-9,10-dilinoleoxystearate], the “Peptide:Lipid” value in data set [1] (setting [13]) is recorded as 0.074 wt/wt; in data set [1] (setting [8]) it was 0.160 wt/wt. In addition, the “Encapsulation Efficiency” value is on record as 99% in data set [3] (setting [9]), 89% in data set [3] (setting [10]) and 92% in data set [3] (setting [11]). Further, the “Activity … (luminescence)” value with HepG2 cells is “can effectively deliver mRNA; also recorded: most active”. Also, in data set [4], the “HA:Lipid” value was determined as 0.094 wt/wt. The “Particle Diameter” value in data set [2] (setting [12]) is 64 nm; in data set [2] (setting [9]), 49 nm; in data set [2] (setting [13]) it was 142 nm; in data set [2] (setting [8]), 76 nm; in data set [2] (setting [10]) it was 54 nm; in data set [2] (setting [11]), 55 nm. The “Polydispersity index (PDI)” value in data set [2] (setting [12]) was determined as 0.035; in data set [2] (setting [9]), 0.050; in data set [2] (setting [13]), 0.025; in data set [2] (setting [8]), 0.031; in data set [2] (setting [10]) it was 0.036; in data set [2] (setting [11]), 0.043. The “Activity in mediating FVII gene-silencing (residual serum FVII levels)” value with factor VII (FVII) was “active in mediating gene-silencing”. Besides, the “Activity … (liver luminescence)” value in data set [5] is listed as “can effectively deliver mRNA”.

Take `CCCCCCCCC(CCCCCC)C(=O)O[C@@H](CCCCCCCC)[C@@H](CCCCCCCC(=O)O)OC(=O)C(CCCCCC)CCCCCCCC` (mixture of isomers) [INT-A009, (±)-syn-9,10-Bis(2-hexyldecanoyloxy)stearic Acid]: in data set [1] (setting [7]), the “Peptide:Lipid” value stood at 0.121 wt/wt. In data set [2] (setting [7]), the “Particle Diameter” value is reported as 39 nm and the “Polydispersity index (PDI)” value is 0.057.

For the compound `CCCCC/C=C\C/C=C\CCCCCCCC(=O)O[C@@H](CCCCCCCC)[C@@H](CCCCCCCC(=O)OCCN(CC)CC)OC(=O)CCCCCCC/C=C\C/C=C\CCCCC` (racemic) [INT-A004, 2-(Diethylamino)ethyl (±)-syn-9,10-dilinoleoxystearate], the entries for the “Peptide:Lipid” value in data set [1] (setting [13]) and in data set [1] (setting [8]) were 0.073 wt/wt and 0.158 wt/wt, respectively. Moreover, the results for the “Encapsulation Efficiency” value in data set [3] (setting [9]), in data set [3] (setting [10]) and in data set [3] (setting [11]) were 96%, 88% and 61%, respectively. The “Activity … (luminescence)” value with HepG2 cells is on record as “can effectively deliver mRNA”. The “Apparent pKa” value in data set [6] came to 5.8. Besides, the “Particle Diameter” value in data set [2] (setting [9]) worked out at 42 nm; in data set [2] (setting [13]), 59 nm; in data set [2] (setting [8]), 40 nm; in data set [2] (setting [10]), 45 nm; in data set [2] (setting [11]), 58 nm. The “Polydispersity index (PDI)” value turned out to be 0.090 in data set [2] (setting [9]); 0.051 in data set [2] (setting [13]); 0.034 in data set [2] (setting [8]); 0.065 in data set [2] (setting [10]); 0.024 in data set [2] (setting [11]). Besides, the “Activity … (liver luminescence)” value in data set [5] is “can effectively deliver mRNA”.
